From ChEMBL document CHEMBL3991601, “The target landscape of clinical kinase drugs” (Science, 2017)
Counter-ions that a name gives are not always drawn. The source made the active and inactive calls. For most assays here, no stated cut-off is given here; in the data, actives have a measured Kd and inactives only a lower limit.

Key:
[1] = target: Epidermal growth factor receptor (Homo sapiens, UniProt P00533)
[2] = target: NADH dehydrogenase [ubiquinone] 1 alpha subcomplex subunit 13 (Homo sapiens, UniProt Q9P0J0)
Sequence of NADH dehydrogenase [ubiquinone] 1 alpha subcomplex subunit 13 (Q9P0J0 whole entry, one chain of several): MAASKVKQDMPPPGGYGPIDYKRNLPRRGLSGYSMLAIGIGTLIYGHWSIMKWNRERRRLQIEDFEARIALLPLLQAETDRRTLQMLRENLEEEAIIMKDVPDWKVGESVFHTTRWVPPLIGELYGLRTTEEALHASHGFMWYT

[3] = target: DNA topoisomerase 2-beta (Homo sapiens, UniProt Q02880)
Sequence of DNA topoisomerase 2-beta (Q02880 whole entry): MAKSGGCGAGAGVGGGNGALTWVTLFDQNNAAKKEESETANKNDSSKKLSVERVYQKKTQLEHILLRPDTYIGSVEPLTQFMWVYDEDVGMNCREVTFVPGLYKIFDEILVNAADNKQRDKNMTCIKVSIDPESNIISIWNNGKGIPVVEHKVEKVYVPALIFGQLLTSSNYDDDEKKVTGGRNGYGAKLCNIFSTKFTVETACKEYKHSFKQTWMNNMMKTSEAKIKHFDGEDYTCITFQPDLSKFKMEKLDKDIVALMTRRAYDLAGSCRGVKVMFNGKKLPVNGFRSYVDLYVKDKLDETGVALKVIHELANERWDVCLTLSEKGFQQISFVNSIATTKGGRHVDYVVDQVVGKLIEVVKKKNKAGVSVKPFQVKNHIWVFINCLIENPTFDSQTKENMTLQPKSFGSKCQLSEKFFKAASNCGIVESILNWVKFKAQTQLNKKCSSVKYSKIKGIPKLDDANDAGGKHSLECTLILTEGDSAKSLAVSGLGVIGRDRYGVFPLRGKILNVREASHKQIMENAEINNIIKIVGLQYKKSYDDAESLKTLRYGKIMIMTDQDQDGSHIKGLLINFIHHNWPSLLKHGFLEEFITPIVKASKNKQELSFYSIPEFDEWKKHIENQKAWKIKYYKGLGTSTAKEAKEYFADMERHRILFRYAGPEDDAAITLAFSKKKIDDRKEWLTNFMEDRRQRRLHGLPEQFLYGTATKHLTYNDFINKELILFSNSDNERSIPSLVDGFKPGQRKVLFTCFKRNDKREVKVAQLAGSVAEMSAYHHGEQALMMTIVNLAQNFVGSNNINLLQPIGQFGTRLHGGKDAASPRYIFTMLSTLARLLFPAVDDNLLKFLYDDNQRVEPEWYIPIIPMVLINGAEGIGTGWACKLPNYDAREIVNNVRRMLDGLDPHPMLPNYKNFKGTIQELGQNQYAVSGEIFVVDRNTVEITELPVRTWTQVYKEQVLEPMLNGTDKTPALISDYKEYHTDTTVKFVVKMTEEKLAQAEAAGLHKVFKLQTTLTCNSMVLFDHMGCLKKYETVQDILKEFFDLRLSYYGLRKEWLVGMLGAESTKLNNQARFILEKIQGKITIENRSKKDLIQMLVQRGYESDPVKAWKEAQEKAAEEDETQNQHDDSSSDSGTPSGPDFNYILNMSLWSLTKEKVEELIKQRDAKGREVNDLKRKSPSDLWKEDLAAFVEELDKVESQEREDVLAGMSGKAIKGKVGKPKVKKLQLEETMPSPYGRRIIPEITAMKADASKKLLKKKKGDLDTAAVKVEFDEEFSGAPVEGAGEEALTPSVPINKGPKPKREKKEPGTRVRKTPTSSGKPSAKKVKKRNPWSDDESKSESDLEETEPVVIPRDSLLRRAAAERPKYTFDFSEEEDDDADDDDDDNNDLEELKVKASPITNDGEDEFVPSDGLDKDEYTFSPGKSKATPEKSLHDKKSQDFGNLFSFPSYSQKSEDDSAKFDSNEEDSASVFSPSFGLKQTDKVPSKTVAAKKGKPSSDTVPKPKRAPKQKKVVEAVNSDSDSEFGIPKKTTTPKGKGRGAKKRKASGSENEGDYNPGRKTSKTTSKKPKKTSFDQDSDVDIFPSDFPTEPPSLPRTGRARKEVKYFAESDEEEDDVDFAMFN

[4] = target: Ribosomal protein S6 kinase alpha-5 (Homo sapiens, UniProt O75582)
[5] = target: Ribosomal protein S6 kinase alpha-3 (Homo sapiens, UniProt P51812)
Sequence of Ribosomal protein S6 kinase alpha-3 (P51812 whole entry): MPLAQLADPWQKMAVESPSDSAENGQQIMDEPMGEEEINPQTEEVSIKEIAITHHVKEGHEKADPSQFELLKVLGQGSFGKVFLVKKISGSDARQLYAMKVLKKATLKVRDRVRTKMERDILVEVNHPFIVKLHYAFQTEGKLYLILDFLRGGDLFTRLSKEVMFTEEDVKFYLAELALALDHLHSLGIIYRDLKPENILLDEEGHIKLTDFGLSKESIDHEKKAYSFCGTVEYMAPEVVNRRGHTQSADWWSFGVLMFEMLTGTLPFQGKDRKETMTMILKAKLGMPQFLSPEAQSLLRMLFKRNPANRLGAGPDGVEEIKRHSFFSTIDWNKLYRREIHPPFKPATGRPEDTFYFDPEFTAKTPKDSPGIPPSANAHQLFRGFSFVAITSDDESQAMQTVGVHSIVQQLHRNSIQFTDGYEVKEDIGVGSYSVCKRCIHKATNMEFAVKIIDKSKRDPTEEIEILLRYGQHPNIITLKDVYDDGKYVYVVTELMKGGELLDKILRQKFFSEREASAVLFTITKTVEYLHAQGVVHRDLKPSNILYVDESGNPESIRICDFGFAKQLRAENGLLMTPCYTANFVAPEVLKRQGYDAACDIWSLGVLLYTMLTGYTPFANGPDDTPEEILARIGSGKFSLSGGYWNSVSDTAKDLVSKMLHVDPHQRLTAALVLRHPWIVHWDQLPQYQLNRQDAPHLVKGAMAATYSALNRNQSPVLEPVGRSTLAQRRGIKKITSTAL

[6] = target: Serine/threonine-protein kinase/endoribonuclease IRE1 (Homo sapiens, UniProt O75460)
Sequence of Serine/threonine-protein kinase/endoribonuclease IRE1 (O75460 whole entry): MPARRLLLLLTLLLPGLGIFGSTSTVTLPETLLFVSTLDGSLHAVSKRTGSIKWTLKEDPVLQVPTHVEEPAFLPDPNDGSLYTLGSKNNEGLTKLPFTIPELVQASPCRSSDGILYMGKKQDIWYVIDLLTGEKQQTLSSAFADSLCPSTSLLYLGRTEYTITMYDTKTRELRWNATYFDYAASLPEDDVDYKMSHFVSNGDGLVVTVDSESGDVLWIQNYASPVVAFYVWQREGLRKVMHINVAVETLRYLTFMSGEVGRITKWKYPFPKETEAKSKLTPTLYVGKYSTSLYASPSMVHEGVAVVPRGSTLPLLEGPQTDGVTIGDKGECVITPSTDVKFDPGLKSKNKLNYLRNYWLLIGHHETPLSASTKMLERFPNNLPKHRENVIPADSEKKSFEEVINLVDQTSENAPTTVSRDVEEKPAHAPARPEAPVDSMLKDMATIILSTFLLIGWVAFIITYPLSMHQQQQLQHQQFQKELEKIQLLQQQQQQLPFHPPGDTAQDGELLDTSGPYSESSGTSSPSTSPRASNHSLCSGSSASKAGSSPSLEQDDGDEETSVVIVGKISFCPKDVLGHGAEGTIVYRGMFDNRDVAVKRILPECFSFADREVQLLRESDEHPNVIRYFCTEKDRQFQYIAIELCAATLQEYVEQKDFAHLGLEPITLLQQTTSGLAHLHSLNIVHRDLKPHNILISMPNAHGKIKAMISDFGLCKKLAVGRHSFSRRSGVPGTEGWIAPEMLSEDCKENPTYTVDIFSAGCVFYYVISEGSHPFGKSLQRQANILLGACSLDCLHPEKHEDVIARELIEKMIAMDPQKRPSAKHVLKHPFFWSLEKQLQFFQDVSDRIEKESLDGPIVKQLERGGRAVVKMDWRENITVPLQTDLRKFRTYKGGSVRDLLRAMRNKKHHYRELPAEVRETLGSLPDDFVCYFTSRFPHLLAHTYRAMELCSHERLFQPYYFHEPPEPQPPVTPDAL

[7] = target: T1, ATP-dependent RNA helicase DHX30 (Homo sapiens, UniProt Q7L2E3)
T1 sequence (Q7L2E3 whole entry): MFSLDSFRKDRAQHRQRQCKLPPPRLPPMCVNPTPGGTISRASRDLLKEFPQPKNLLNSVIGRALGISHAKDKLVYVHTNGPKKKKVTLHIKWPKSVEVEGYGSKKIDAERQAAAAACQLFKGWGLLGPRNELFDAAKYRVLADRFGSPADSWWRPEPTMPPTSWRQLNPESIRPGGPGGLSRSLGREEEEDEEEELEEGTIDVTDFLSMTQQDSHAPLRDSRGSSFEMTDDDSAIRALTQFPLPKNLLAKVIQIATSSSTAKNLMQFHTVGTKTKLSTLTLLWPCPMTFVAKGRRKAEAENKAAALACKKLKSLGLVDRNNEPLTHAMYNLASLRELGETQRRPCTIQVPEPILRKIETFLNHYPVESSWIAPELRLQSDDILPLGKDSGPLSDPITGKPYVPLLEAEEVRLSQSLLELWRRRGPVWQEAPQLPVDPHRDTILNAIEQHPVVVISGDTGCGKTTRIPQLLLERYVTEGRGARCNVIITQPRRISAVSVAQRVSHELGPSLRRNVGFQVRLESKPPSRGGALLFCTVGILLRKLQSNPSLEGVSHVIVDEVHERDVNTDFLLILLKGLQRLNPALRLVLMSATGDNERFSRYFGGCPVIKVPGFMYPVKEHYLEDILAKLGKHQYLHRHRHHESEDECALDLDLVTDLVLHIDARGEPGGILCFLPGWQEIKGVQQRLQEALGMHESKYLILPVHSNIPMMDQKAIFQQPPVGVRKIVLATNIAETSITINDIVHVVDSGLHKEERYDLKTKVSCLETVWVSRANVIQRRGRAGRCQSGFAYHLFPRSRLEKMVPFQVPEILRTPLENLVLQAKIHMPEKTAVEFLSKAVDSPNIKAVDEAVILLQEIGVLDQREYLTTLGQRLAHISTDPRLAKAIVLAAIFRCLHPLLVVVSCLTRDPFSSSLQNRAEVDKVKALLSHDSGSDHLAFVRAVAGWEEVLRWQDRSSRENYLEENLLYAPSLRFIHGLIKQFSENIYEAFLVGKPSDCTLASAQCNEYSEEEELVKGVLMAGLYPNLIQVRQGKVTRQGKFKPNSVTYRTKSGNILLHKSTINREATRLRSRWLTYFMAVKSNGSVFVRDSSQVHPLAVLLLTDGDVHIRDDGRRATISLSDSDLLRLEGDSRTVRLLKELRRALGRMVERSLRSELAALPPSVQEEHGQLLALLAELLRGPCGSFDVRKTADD

[8] = target: Mitogen-activated protein kinase 10 (Homo sapiens, UniProt P53779)
Sequence of Mitogen-activated protein kinase 10 (P53779 whole entry): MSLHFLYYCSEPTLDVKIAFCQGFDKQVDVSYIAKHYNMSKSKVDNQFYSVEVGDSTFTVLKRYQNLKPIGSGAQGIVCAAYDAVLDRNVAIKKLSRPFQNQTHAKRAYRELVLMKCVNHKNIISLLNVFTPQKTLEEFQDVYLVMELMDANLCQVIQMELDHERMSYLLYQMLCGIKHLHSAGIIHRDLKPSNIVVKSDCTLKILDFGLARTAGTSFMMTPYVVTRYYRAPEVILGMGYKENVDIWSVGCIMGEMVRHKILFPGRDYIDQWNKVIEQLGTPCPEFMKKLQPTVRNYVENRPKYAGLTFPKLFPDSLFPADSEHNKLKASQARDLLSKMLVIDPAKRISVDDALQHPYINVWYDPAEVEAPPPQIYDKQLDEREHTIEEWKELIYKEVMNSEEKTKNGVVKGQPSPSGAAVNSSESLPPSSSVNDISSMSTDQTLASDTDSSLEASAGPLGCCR

[9] = target: Ephrin type-A receptor 4 (Homo sapiens, UniProt P54764)
Sequence of Ephrin type-A receptor 4 (P54764 whole entry): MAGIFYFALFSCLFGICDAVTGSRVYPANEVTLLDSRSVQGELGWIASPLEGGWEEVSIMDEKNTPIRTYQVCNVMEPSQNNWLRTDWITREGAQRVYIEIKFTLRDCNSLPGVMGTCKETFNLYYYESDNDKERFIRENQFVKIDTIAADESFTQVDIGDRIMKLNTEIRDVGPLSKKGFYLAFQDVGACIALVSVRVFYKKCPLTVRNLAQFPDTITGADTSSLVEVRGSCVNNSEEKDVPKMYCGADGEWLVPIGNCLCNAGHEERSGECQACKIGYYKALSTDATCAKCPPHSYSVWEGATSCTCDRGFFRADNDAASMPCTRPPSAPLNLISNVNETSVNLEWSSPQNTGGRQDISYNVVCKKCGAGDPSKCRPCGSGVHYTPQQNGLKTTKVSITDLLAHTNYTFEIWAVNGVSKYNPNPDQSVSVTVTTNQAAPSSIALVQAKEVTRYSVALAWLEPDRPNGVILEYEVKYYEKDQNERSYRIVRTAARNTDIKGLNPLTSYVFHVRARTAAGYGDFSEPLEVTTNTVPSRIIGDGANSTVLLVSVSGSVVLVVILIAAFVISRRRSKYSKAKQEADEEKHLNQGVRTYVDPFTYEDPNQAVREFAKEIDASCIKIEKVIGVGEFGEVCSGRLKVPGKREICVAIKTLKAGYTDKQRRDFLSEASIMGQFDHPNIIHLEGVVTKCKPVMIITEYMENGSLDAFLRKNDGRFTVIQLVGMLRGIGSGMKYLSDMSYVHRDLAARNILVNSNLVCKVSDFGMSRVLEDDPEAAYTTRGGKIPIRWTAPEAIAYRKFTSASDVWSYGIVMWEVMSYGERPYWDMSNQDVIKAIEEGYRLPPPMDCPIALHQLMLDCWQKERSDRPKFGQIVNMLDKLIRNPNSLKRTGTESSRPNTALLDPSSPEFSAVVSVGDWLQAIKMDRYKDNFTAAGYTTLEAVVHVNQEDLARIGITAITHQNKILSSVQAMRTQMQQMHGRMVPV

[10] = target: Serine/threonine-protein kinase 10 (Homo sapiens, UniProt O94804)
[11] = target: Dual specificity mitogen-activated protein kinase kinase 2 (Homo sapiens, UniProt P36507)
[12] = target: T2, Septin-9 (Homo sapiens, UniProt Q9UHD8)
T2 sequence (Q9UHD8 whole entry): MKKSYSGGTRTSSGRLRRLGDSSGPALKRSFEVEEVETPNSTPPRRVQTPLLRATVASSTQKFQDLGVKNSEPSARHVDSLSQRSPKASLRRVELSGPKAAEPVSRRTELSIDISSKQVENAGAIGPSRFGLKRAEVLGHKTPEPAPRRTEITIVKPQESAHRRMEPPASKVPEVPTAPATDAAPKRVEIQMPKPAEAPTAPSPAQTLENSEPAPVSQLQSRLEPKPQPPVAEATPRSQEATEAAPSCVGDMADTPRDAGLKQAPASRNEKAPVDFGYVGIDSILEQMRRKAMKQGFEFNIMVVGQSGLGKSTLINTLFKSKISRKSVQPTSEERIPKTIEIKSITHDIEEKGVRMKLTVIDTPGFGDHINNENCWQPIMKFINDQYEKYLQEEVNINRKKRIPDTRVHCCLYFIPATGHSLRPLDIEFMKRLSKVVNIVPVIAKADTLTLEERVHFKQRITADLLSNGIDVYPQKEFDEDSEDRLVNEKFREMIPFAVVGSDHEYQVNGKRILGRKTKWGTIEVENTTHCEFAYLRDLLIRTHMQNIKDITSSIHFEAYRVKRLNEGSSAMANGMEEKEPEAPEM

[13] = target: Cyclin-dependent kinase 17 (Homo sapiens, UniProt Q00537)
[14] = target: Chromodomain-helicase-DNA-binding protein 4 (Homo sapiens, UniProt Q14839)

Row | SMILES | Kd [1] | Kd [2] | Kd [3] | Kd [4] | Kd [5] | Kd [6] | Kd [7] | Kd [8] | Kd [9] | Kd [10] | Kd [11] | Kd [12] | Kd [13] | Kd [14]
1 | C=CC(=O)N1CCC[C@H](n2c(=O)n(-c3ccc(Oc4ccccc4)cc3)c3c(N)ncnc32)C1 | 0.019 µM (active) | > 30 µM (inactive) | > 30 µM (inactive) | > 30 µM (inactive) | > 30 µM (inactive) | > 30 µM (inactive) | > 30 µM (inactive) | > 30 µM (inactive) | > 30 µM (inactive) | > 30 µM (inactive) | > 30 µM (inactive) | > 30 µM (inactive) | > 30 µM (inactive) | 
2 | COCc1c(-c2ccc(NC(=O)Nc3cc(C(F)(F)F)ccc3F)c(F)c2)c2c(N)ncnn2c1CN1CCOCC1 | > 30 µM (inactive) | > 30 µM (inactive) | > 30 µM (inactive) | > 30 µM (inactive) | 5.31 µM (active) | > 30 µM (inactive) | > 30 µM (inactive) | > 30 µM (inactive) | > 30 µM (inactive) | > 30 µM (inactive) | > 30 µM (inactive) | > 30 µM (inactive) | > 30 µM (inactive) | > 30 µM (inactive)
3 | Cn1cnc2c(F)c(Nc3ccc(Br)cc3F)c(C(=O)NOCCO)cc21 [BINIMETINIB] | > 30 µM (inactive) | > 30 µM (inactive) | > 30 µM (inactive) | > 30 µM (inactive) | > 30 µM (inactive) | > 30 µM (inactive) | > 30 µM (inactive) | > 30 µM (inactive) | > 30 µM (inactive) | > 30 µM (inactive) | 0.036 µM (active) | > 30 µM (inactive) | > 30 µM (inactive) | > 30 µM (inactive)
4 | COc1c(OCCCN2CCOCC2)ccc2c1N=C(NC(=O)c1cnc(N)nc1)N1CCN=C21 [COPANLISIB] | > 30 µM (inactive) | > 30 µM (inactive) | > 30 µM (inactive) | > 30 µM (inactive) | > 30 µM (inactive) | > 30 µM (inactive) | > 30 µM (inactive) | > 30 µM (inactive) | > 30 µM (inactive) | > 30 µM (inactive) | > 30 µM (inactive) | > 30 µM (inactive) | > 30 µM (inactive) | > 30 µM (inactive)
5 | CCS(=O)(=O)N1CCN(c2ccc(Nc3ncc(C(N)=O)c(NC4CC4)n3)cc2)CC1 [Cerdulatinib Hydrochloride] | > 30 µM (inactive) | > 30 µM (inactive) | > 30 µM (inactive) | > 30 µM (inactive) | 5.89 µM (active) | > 30 µM (inactive) | > 30 µM (inactive) |  | > 30 µM (inactive) | > 30 µM (inactive) | > 30 µM (inactive) | > 30 µM (inactive) | > 30 µM (inactive) | > 30 µM (inactive)
6 | O=C(Nc1nc2cccc(-c3ccc(CN4CCS(=O)(=O)CC4)cc3)n2n1)C1CC1 [FILGOTINIB] | > 30 µM (inactive) | > 30 µM (inactive) | > 30 µM (inactive) | > 30 µM (inactive) | > 30 µM (inactive) | > 30 µM (inactive) | > 30 µM (inactive) | 2.14 µM (active) | > 30 µM (inactive) | 1.91 µM (active) | > 30 µM (inactive) | > 30 µM (inactive) | > 30 µM (inactive) | > 30 µM (inactive)
7 | Cc1cccc(-c2nn3c(c2-c2ccnc4ccc(C(N)=O)cc24)CCC3)n1 [GALUNISERTIB] | > 30 µM (inactive) | > 30 µM (inactive) | > 30 µM (inactive) | > 30 µM (inactive) | > 30 µM (inactive) | > 30 µM (inactive) | > 30 µM (inactive) | > 30 µM (inactive) | > 30 µM (inactive) | > 30 µM (inactive) | > 30 µM (inactive) | > 30 µM (inactive) | > 30 µM (inactive) | > 30 µM (inactive)
8 | CNC(=O)c1cccc2cc(Oc3ccnc4cc(OCC5(N)CC5)c(OC)cc34)ccc12 [LUCITANIB] | > 30 µM (inactive) | > 30 µM (inactive) | > 30 µM (inactive) | > 30 µM (inactive) | > 30 µM (inactive) | > 30 µM (inactive) | > 30 µM (inactive) | > 30 µM (inactive) | > 30 µM (inactive) | > 30 µM (inactive) | > 30 µM (inactive) | > 30 µM (inactive) | > 30 µM (inactive) | > 30 µM (inactive)
9 | CO[C@H]1C[C@@H]2CC[C@@H](C)[C@@](O)(O2)C(=O)C(=O)N2CCCC[C@H]2C(=O)O[C@H]([C@H](C)C[C@@H]2CC[C@@H](O)[C@H](OC)C2)CC(=O)[C@H](C)/C=C(\C)[C@@H](O)[C@@H](OC)C(=O)[C@H](C)C[C@H](C)/C=C/C=C/C=C/1C [SIROLIMUS] | > 30 µM (inactive) |  | > 30 µM (inactive) | > 30 µM (inactive) | > 30 µM (inactive) | > 30 µM (inactive) | > 30 µM (inactive) | > 30 µM (inactive) | > 30 µM (inactive) | > 30 µM (inactive) | > 30 µM (inactive) | > 30 µM (inactive) | > 30 µM (inactive) | > 30 µM (inactive)

Continued, values first:

Row | Kd [1] | Kd [2] | Kd [3] | Kd [4] | Kd [5] | Kd [6] | Kd [7] | Kd [8] | Kd [9] | Kd [10] | Kd [11] | Kd [12] | Kd [13] | Kd [14] | SMILES
10 | > 30 µM (inactive) | > 30 µM (inactive) | > 30 µM (inactive) | > 30 µM (inactive) | > 30 µM (inactive) | > 30 µM (inactive) | > 30 µM (inactive) | > 30 µM (inactive) | > 30 µM (inactive) | > 30 µM (inactive) | 5.76 µM (active) | > 30 µM (inactive) | > 30 µM (inactive) |  | Nc1ncnc2c1c(-c1cccc(OCc3ccccc3)c1)cn2[C@H]1C[C@@H](CN2CCC2)C1 [AEW-541]
11 | > 30 µM (inactive) |  | 2.6 µM | 2.15 µM (active) | > 30 µM (inactive) | > 30 µM (inactive) | > 30 µM (inactive) | > 30 µM (inactive) | > 30 µM (inactive) | > 30 µM (inactive) | 3.49 µM (active) | > 30 µM (inactive) | > 30 µM (inactive) | > 30 µM (inactive) | Cc1csc(-c2nnc(Nc3ccc(Oc4ncccc4-c4ccnc(N)n4)cc3)c3ccccc23)c1 [AMG-900]
12 | > 30 µM (inactive) | > 30 µM (inactive) | > 30 µM (inactive) | > 30 µM (inactive) | > 30 µM (inactive) | > 30 µM (inactive) | > 30 µM (inactive) | > 30 µM (inactive) | > 30 µM (inactive) | > 30 µM (inactive) | > 30 µM (inactive) | > 30 µM (inactive) | > 30 µM (inactive) | > 30 µM (inactive) | COc1ccc(S(=O)(=O)N(C(C)=O)c2ccccc2/C=C/c2cc[n+]([O-])cc2)cc1 [HMN-214]
